From paper PMC9732253, “Inhibition of the Phosphatidylinositol-3 Kinase Pathway Using Bimiralisib in Loss-of-Function NOTCH1-Mutant Head and Neck Cancer” (The Oncologist, 2022)

Protocol: All patients received 140 mg bimiralisib (PQR309) orally once daily on 2 consecutive days followed by 5 days without treatment weekly until unacceptable toxicity, tumor progression, patient request for withdrawal, investigator judgment, or death.
Radiologic tumor assessments were performed using computed tomography at baseline and every 6 weeks. Safety was continuously monitored.

Nc1cc(C(F)(F)F)c(-c2nc(N3CCOCC3)nc(N3CCOCC3)n2)cn1 [Bimiralisib, 5-(4,6-dimorpholino-1,3,5-triazin-2-yl)-4-(trifluoromethyl)pyridin-2-amine]
No patients: AE leading to dose reduction (8 patients)
3 (37.5) n (%): Any adverse event, Grade 2, patients (n = 8)
23: Number of AEs (any severity) suspected to be related to treatment (in 7 patients)
37.5%: Fatigue, AEs irrespective of causality (any grade, 3 patients of 8) | Hyperglycemia, AEs irrespective of causality (any grade, 3 patients of 8) | Nausea, AEs irrespective of causality (any grade, 3 patients of 8)
3: Infections and infestations, Grade 2, total number of events (human, in vivo) | Infections and infestations, Grade 3/4, total number of events (human, in vivo)
62.5%: Patients with severe AEs (SAEs, CTCAE grade ≥3) (five patients of 8)
2 (25.0) n (%): Infections and infestations, Grade 2, patients (human, in vivo)
1 (12.5) n (%): Sepsis, Grade 3/4, patients (human, in vivo) | Skin infection, Grade 2, patients (human, in vivo) | Skin infection, Grade 3/4, patients (human, in vivo) | Wound infection, Grade 2, patients (human, in vivo) | Acute respiratory distress syndrome, Grade 3/4, patients (n = 8) | Alanine aminotransferase increased, Grade 3/4, patients (n = 8) | Anemia, Grade 3/4, patients (n = 8) | Aspartate aminotransferase increased, Grade 3/4, patients (n = 8) | Asthenia, Grade 1, patients (n = 8) | Blood and lymphatic system disorders, Grade 3/4, patients (n = 8) | Blood creatinine increased, Grade 1, patients (n = 8) | Blood glucose increased, Grade 1, patients (n = 8) | Cellulitis, Grade 2, patients (n = 8) | Chest pain, Grade 1, patients (n = 8)
well tolerated: Tolerability (8 patients, 140 mg orally 2 consecutive days weekly)
5 (62.5) n (%): Any adverse event, Grade 3/4, patients (n = 8)
0: Infections and infestations, Grade 1, total number of events (human, in vivo) | Sepsis, Grade 1, total number of events (human, in vivo) | Sepsis, Grade 2, total number of events (human, in vivo) | Skin infection, Grade 1, total number of events (human, in vivo) | Wound infection, Grade 1, total number of events (human, in vivo) | Acute respiratory distress syndrome, Grade 1, total number of events (n = 8) | Acute respiratory distress syndrome, Grade 2, total number of events (n = 8) | Alanine aminotransferase increased, Grade 1, total number of events (n = 8) | Alanine aminotransferase increased, Grade 2, total number of events (n = 8) | Anemia, Grade 1, total number of events (n = 8) | Anemia, Grade 2, total number of events (n = 8) | Aspartate aminotransferase increased, Grade 1, total number of events (n = 8) | Aspartate aminotransferase increased, Grade 2, total number of events (n = 8) | Asthenia, Grade 2, total number of events (n = 8) | Asthenia, Grade 3/4, total number of events (n = 8) | Blood and lymphatic system disorders, Grade 1, total number of events (n = 8) | Blood and lymphatic system disorders, Grade 2, total number of events (n = 8) | Blood creatinine increased, Grade 2, total number of events (n = 8) | Blood creatinine increased, Grade 3/4, total number of events (n = 8) | Blood glucose increased, Grade 2, total number of events (n = 8) | Blood glucose increased, Grade 3/4, total number of events (n = 8) | Cellulitis, Grade 1, total number of events (n = 8) | Cellulitis, Grade 3/4, total number of events (n = 8) | Chest pain, Grade 2, total number of events (n = 8)
29: Any adverse event, Grade 1, total number of events (n = 8)
25%: Skin infection, AEs irrespective of causality (human, in vivo)
1: Skin infection, Grade 2, total number of events (human, in vivo) | Wound infection, Grade 2, total number of events (human, in vivo) | Acute respiratory distress syndrome, Grade 3/4, total number of events (n = 8) | Alanine aminotransferase increased, Grade 3/4, total number of events (n = 8) | Anemia, Grade 3/4, total number of events (n = 8) | Aspartate aminotransferase increased, Grade 3/4, total number of events (n = 8) | Asthenia, Grade 1, total number of events (n = 8) | Blood and lymphatic system disorders, Grade 3/4, total number of events (n = 8) | Blood creatinine increased, Grade 1, total number of events (n = 8) | Blood glucose increased, Grade 1, total number of events (n = 8) | Cellulitis, Grade 2, total number of events (n = 8) | Chest pain, Grade 1, total number of events (n = 8)
87.5%: Patients with AEs (any severity) suspected to be related to treatment (7 patients of 8)
15: Any adverse event, Grade 3/4, total number of events (n = 8)
13: Any adverse event, Grade 2, total number of events (n = 8)
8 (100.0) n (%): Any adverse event, Grade 1, patients (n = 8)
Two: Patients who died during the study (both events unrelated to treatment) | SAEs related to treatment with bimiralisib (both hyperglycemia)
25.0%: Aspiration pneumonia, AEs irrespective of causality (any grade, 2 patients of 8) | Confusional state, AEs irrespective of causality (any grade, 2 patients of 8) | Rash, AEs irrespective of causality (any grade, 2 patients of 8) | Vomiting, AEs irrespective of causality (any grade, 2 patients of 8)
0 n (%): Infections and infestations, Grade 1, patients (human, in vivo) | Sepsis, Grade 1, patients (human, in vivo) | Sepsis, Grade 2, patients (human, in vivo) | Skin infection, Grade 1, patients (human, in vivo) | Wound infection, Grade 1, patients (human, in vivo) | Wound infection, Grade 3/4, patients (human, in vivo) | Acute respiratory distress syndrome, Grade 1, patients (n = 8) | Acute respiratory distress syndrome, Grade 2, patients (n = 8) | Alanine aminotransferase increased, Grade 1, patients (n = 8) | Alanine aminotransferase increased, Grade 2, patients (n = 8) | Anemia, Grade 1, patients (n = 8) | Anemia, Grade 2, patients (n = 8) | Aspartate aminotransferase increased, Grade 1, patients (n = 8) | Aspartate aminotransferase increased, Grade 2, patients (n = 8) | Asthenia, Grade 2, patients (n = 8) | Asthenia, Grade 3/4, patients (n = 8) | Blood and lymphatic system disorders, Grade 1, patients (n = 8) | Blood and lymphatic system disorders, Grade 2, patients (n = 8) | Blood creatinine increased, Grade 2, patients (n = 8) | Blood creatinine increased, Grade 3/4, patients (n = 8) | Blood glucose increased, Grade 2, patients (n = 8) | Blood glucose increased, Grade 3/4, patients (n = 8) | Cellulitis, Grade 1, patients (n = 8) | Cellulitis, Grade 3/4, patients (n = 8) | Chest pain, Grade 2, patients (n = 8)
